The test system of assay [1] is DNA synthesis in L1210 cells. As to the kind of experiment: Inhibition of DNA synthesis (incorporation of tritiated 3H-thymidine) in cultured L1210 cells. The format is cell-based. As to conditions: Mus musculus. The protocol:
(§1) Also presented in the table are the results of in vitro tests using cultured L1210 cells in which the activity of each chemical enumerated in the following table is presented in relation to its potency as an inhibitor of nucleic acid synthesis. Data for daunomycin and adriamycin are also included in the table for the sake of comparison. More specifically, the inhibition of the synthesis of DNA and RNA by each compound was measured as a function of its activity in inhibiting incorporation of tritiated ^3 H-thymidine or ^3 H-uridine into DNA and RNA, respectively. ED50 represents the concentration, in micromolar units, which inhibits incorporation of 50% of tritiated ^3 H-thymidine or ^3 H-uridine into the DNA and RNA of the test cells.
(§2) ^a ΔTm and Ed50 values were determined by the method of G.
(§3) Tong, W. W. Lee, D. R. Black, and D. W. Henry, J. Med. Chem., 19, 395
(§4) (1976), except that the drugs were initially dissolved in a volume of DMS
(§5) the assay medium. This modification greatly aided solubilization and did
(§6) not affect assay results, according to extensive control experiments.

Assay [2] concerns P388 lymphocytic leukemia. As to the kind of experiment: Antitumor activity in mice (P388, qd 5,9,13). The format is in vivo. Conditions: ip; for T/C (P388, qd 5,9,13): at optimal dose, days 5, 9, 13, ratio of average survival times treated/untreated, active if T/C ≥ 120; for Opt. Dose (P388, qd 5,9,13): days 5, 9, 13. The protocol: (§7) As indicated above, the compounds of the present invention have improved antitumor activity. This is evidenced by the data given below. In one operation, conducted in accordance with Protocol 1200 set forth in Cancer Chemotherapy Reports, National Cancer Institute, Vol. 3, No. 2, Part 3, September 1972, healthy mice were inoculated i.p. with Limphocytic Leukemia P-388 ascitic fluid. The inoculated mice were then treated i.p. for the succeeding 9 day period with varying amounts of the test chemicals of Example 2 while others of the mice were similarly inoculated with adrimycin hydrochloride and with daunomycin hydrochloride, the dosage pattern being set forth in the table given below. The average survival times of the treated mice was then determined, as was that of the control mice, which were inoculated with the ascitic fluid but given no treatment with the test chemicals. Presented in the following table under the T/C column headings are data obtained by dividing the survival time of the treated mice with that of the control mice, the quotient so obtained being multiplied by 100.
(§8) ^b Assays arranged through Drug Research and Development Program,
(§9) Division of Cancer Treatment, National Cancer Institute. BDF or CDF mice
(§10) are injected ip with […] P388 lymphocytic leukemia cells on Day 0
(§11) and are treated ip on Days 1-9 or days 5, 9, 13 with the specified drug
(§12) dose. For detailed protocols see R. I. Geran, N. H. Greenberg, M. M.
(§13) MacDonald, A. M. Schumacher, and B. J. Abbott, Cancer Chemother. Rep.,
(§14) ^c Ratio of average survival times of treated mice to untreated
(§15) controls in percent. The average survival time of untreated controls is
(§16) approximately 11 days. Activity is defined as values of T/C ≥ 120
(§17) in the qd 5, 9, 13 protocol and T/C ≥ 125 in the qd 1-9 protocol.

Assay [3] relates to P388 lymphocytic leukemia. As to the kind of experiment: Antitumor activity in mice (P388, qd 1-9). The format is in vivo. As to conditions: ip; for T/C (P388, qd 1-9): at optimal dose, days 1-9, ratio of average survival times treated/untreated, active if T/C ≥ 125; for Opt. Dose (P388, qd 1-9): days 1-9. The protocol:
as §7, §8, §9, §10, §11, §12, §13, §14, §15, §16, §17

Another assay is described as follows: ΔTm. As to conditions: drugs initially dissolved in DMSO; final DMSO 5%. The format is binding. The protocol:
as §2, §3, §4, §5, §6

Assay [4] relates to RNA synthesis in L1210 cells. As to the kind of experiment: Inhibition of RNA synthesis (incorporation of tritiated 3H-uridine) in cultured L1210 cells. The format is cell-based. As to conditions: for Nucleic Acid Syn Inhibn, ED50 ratio DNA/RNA: ED50 DNA divided by ED50 RNA; for IC50: Mus musculus. The protocol:
as §1, §2, §3, §4, §5, §6

Where [5] appears, read: L1210, read-out: Nucleic Acid Syn Inhibn, ED50 DNA.
[6] abbreviates: L1210, read-out: Nucleic Acid Syn Inhibn, ED50 RNA.

Molecules are shown by their SMILES. Structures can show the parent of a compound that is named as a salt. Where two headings read alike, the source gives them in different places.

Broadly, the ΔTm is the change in melting temperature against a reference sample. `COc1cccc2c1C(=O)c1c(O)c3c(c(O)c1C2=O)C[C@@](O)(C(O)CO)C[C@@H]3O[C@H]1C[C@H](N2CCCCC2)[C@H](O)[C@H](C)O1` (stereo partly drawn) [N,N-Pentamethylene-13-dihydroadriamycin]: the IC50 in assay [1] (setting [5]) amounted to 720 nM. Besides, in assay [2], the “T/C (P388, qd 5,9,13)” value is 143% and the “Opt. Dose (P388, qd 5,9,13)” value worked out at 18 mg/kg. In assay [3], the “T/C (P388, qd 1-9)” value stood at 157% and the “Opt. Dose (P388, qd 1-9)” value came out at 1.56 mg/kg. In addition, in “ΔTm”, the shift in melting temperature (ΔTm) was 12.5 °C. Further, the “Nucleic Acid Syn Inhibn, ED50 ratio DNA/RNA” value in assay [4] (L1210 cells) worked out at 7.2. Besides, the IC50 in assay [4] (setting [6]) was found to be 100 nM.
`COc1cccc2c1C(=O)c1c(O)c3c(c(O)c1C2=O)C[C@@](O)(C(=O)CO)C[C@@H]3O[C@H]1C[C@H](N2CCCCC2)[C@H](O)[C@H](C)O1` [N,N-Pentamethyleneadriamycin]: the IC50 in assay [1] (L1210 cells, 3H-thymidine incorporation, 50% inhibition, final DMSO 1%, read-out: Nucleic Acid Syn Inhibn, ED50 DNA) turned out to be 700 nM. In addition, in assay [2], the “T/C (P388, qd 5,9,13)” value came to 155% and the “Opt. Dose (P388, qd 5,9,13)” value is listed as 9.4 mg/kg. Moreover, in assay [3], the “T/C (P388, qd 1-9)” value is listed as 190% and the “Opt. Dose (P388, qd 1-9)” value is reported as 3.13 mg/kg. The ΔTm in the assay “ΔTm” amounted to 15.4 °C. Also, the “Nucleic Acid Syn Inhibn, ED50 ratio DNA/RNA” value in assay [4] (L1210 cells) worked out at 17.5. In addition, in assay [4] (L1210 cells, 3H-uridine incorporation, 50% inhibition, final DMSO 1%, read-out: Nucleic Acid Syn Inhibn, ED50 RNA), the IC50 came out at 40 nM.
For the compound `COc1cccc2c1C(=O)c1c(O)c3c(c(O)c1C2=O)C[C@@](O)(C(C)=O)C[C@@H]3O[C@H]1C[C@H](N)[C@H](O)[C@H](C)O1` [Daunomycin hydrochloride], the IC50 in assay [1] (setting [5]) amounted to 660 nM. Besides, in assay [2], the “T/C (P388, qd 5,9,13)” value came out at 132% and the “Opt. Dose (P388, qd 5,9,13)” value is given as 8 mg/kg. Further, in assay [3], the “T/C (P388, qd 1-9)” value amounted to 160% and the “Opt. Dose (P388, qd 1-9)” value was determined as 0.78 mg/kg. Moreover, the IC50 in assay [4] (setting [6]) is 330 nM.
On to `COc1cccc2c1C(=O)c1c(O)c3c(c(O)c1C2=O)C[C@@](O)(C(=O)CO)C[C@@H]3O[C@H]1C[C@H](N)[C@H](O)[C@H](C)O1` [Adriamycin hydrochloride], for which the IC50 in assay [1] (setting [5]) is 1500 nM. In addition, in assay [2], the “T/C (P388, qd 5,9,13)” value was determined as 159% and the “Opt. Dose (P388, qd 5,9,13)” value is 8 mg/kg. Besides, in assay [3], the “T/C (P388, qd 1-9)” value is reported as 197% and the “Opt. Dose (P388, qd 1-9)” value is reported as 0.78 mg/kg. In addition, the ΔTm in “ΔTm” stood at 13.4 °C. Besides, the “Nucleic Acid Syn Inhibn, ED50 ratio DNA/RNA” value in assay [4] (L1210 cells) is on record as 2.6. Besides, the IC50 in assay [4] (setting [6]) is 580 nM.

These data come from patent US4202967A, “N,N-pentamethylene derivatives of daunomycin and adriamycin” (SRI International, priority 1978, dated 1980).
